Reference: patent publication US11382902B2, “Treatment of cancer by stimulation of IL-12 production” (Macrophage Pharma Limited, priority 2017, dated 2022)

Experiments:
p38 MAPK = p38 MAPK (Homo sapiens, UniProt Q16539); assay: Inhibition of p38 MAPK; assay type: biochemical
[1] = tested on: IFN-γ production in PBMCs stimulated with LPS; assay: Stimulation of IFN-γ in human PBMCs stimulated with LPS (ELISA / multiplex immunoassay); assay type: cell-based; settings: LPS 1 μg/mL, 72 hrs culture
Protocol: (§1) Human PBMCs from six healthy donors were isolated from whole blood. PBMCs were resuspended in RPMI-10 at 1×10^6/mL and plated at a density of 2×10^5 per well (200 μL) in 96-well round bottom culture plates. Treatments or reference controls at different concentrations were prepared in DMSO according to client/supplier instruction and added directly to wells at a final volume of 0.2 μL per well (1:1000). After 2 hours, LPS was added to the culture (1 μg/mL final, 10 μL per well). Cells were cultured for 72 hrs at 37° C. and 5% CO2. Cell-free supernatants were collected at the end of culture period, transferred to new 96-well plates and frozen at −80° C. prior to assessment of IFN-γ, IL-10, IL-12p70 and TNF-α by ELISA and multiplex immunoassay.
(§2) Cultures were performed in triplicate to provide technical replicates and PBMCs from six healthy donors were included to provide biological replication.
(§3) All test and reference substances were formulated at 10 mM stock concentration in anhydrous DMSO, filtered and frozen in aliquots. Immediately prior to addition to assay, stock solutions were diluted in DMSO to prepare solutions at 1000 times the final required concentration. All final formulations were freshly prepared and kept sterile and light protected prior to the addition in cultures.
(§4) ELISA plates were read at 450 nm using an Infinite F50 (Tecan) absorbance reader and Magellan™ reader control and data analysis software. Multiplex immunoassays were read using a Luminex MAGPIX multiplexing system and ProcartaPlex Analyst 1.0 software. Graphs were prepared using Graphpad Prism (v6.0). Data were normalised to mean of respective vehicle control group (100%) within each biological replicate to account for donor variation.

[2] = tested on: IL-12p70 production in PBMCs stimulated with LPS; assay: Stimulation of IL-12p70 in human PBMCs stimulated with LPS (ELISA / multiplex immunoassay); assay type: cell-based; settings: PBMC, LPS 1 μg/mL, 72 hrs culture, read-out: Stimulation of IL-12p70 in PBMC's stimulated with LPS EC50
Protocol: as §1, §2, §3, §4

[3] = tested on: IL10 production in PBMCs stimulated with LPS; assay: Inhibition of IL10 in human PBMCs stimulated with LPS (ELISA / multiplex immunoassay); assay type: cell-based; settings: for IC50: PBMC, human PBMCs, LPS 1 μg/mL, 72 hrs culture, read-out: Inhibition of IL10 in PBMC's stimulated with LPS IC50
Protocol: as §1, §2, §3, §4

[4] = versus 6-Amino-5-(2,4-difluorobenzoyl)-1-[2,6-difluorophenyl]pyridin-2(1H)-one and PH797804

Sequence of p38 MAPK (Q16539 whole entry): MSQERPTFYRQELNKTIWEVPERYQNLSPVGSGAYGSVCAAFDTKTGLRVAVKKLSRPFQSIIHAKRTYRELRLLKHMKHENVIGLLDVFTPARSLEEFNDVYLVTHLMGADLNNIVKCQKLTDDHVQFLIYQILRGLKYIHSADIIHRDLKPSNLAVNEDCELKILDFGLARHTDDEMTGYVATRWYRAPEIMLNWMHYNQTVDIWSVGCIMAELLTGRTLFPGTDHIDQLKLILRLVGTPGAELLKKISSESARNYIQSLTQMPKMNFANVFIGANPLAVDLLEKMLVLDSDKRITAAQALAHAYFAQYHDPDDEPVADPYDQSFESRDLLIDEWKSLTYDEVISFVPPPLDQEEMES

SMILES | EC50 (p38 MAPK) [nM] | Stimulation of INF-γ in PBMCs stimulated with LPS EC50 (nM) [1] | EC50 [2] [nM] | IC50 [3] [nM] | Fold less potent inhibitory activity against p38 MAPK than the reference inhibitors (p38 MAPK; [4]) [fold] | EC50 ([1]; PBMC, read-out: Stimulation of INF-γ in PBMCs stimulated with LPS EC50) [nM] | IL10 production inhibited at concentrations fold lower than conventional p38 MAPK inhibitors [3, 4]
Nc1c(C(=O)c2ccc(F)cc2F)ccc(=O)n1-c1c(F)cccc1F [6-Amino-5-(2,4-difluorobenzoyl)-1-[2,6-difluorophenyl]pyridin-2(1H)-one] | < 1 | No stimulation | > 300 | 10 |  |  | 
CNC(=O)c1ccc(C)c(-n2c(C)cc(OCc3ccc(F)cc3F)c(Br)c2=O)c1 [PH797804, 3-[3-Bromo-4-[(2,4-difluorophenyl)methoxy]-6-methyl-2-oxo-1(2H)-pyridinyl]-N,4-dimethyl-benzamide] |  | No stimulation | > 300 | 10 |  |  | 
C[C@H](NCCc1cc(F)c(-n2c(N)c(C(=O)c3ccc(F)cc3F)ccc2=O)c(F)c1)C(=O)OC(C)(C)C [tert-Butyl N-(2-{4-[6-amino-5-(2,4-difluorobenzoyl)-2-oxopyridin-1(2H)-yl]-3,5-difluorophenyl}ethyl)-L-alaninate] | 12 |  | < 1 | < 1 | 10 | 1 | at least 10 fold
